Here are results for one compound from US10674699B2, “Endophyte enhanced seedlings with increased pest tolerance” (priority 2006, dated 2020).

For data set [1] the following is noted: Breen et al. 1955; cited from earlier work.
The subject of data set [2] is spruce budworm larvae. The conditions noted are these: Miller et al. 2002; cited from earlier work.
In data set [3] the test system is mosquito larvae (Aedes albopictus) cell line. The following applies: Watts et al. 2003; cited from earlier work.
Data set [4] concerns Lambdina fiscellaria (hemlock looper) larvae. Kind of data set: Dietary rugulosin in artificial diet, hemlock looper larvae. Type of data set: in vivo. The conditions noted are these: 1 week. How it is done: The toxicity of an endophyte toxin on a pest such as hemlock looper is optionally tested according to the following method. The toxin to be tested is incorporated into an artificial diet suitable for pest growth. Artificial diet is prepared in individual cups, containing toxin concentrations of 5 micromolar, 10 micromolar, 25 micromolar, 50 micromolar and 100 micromolar. One 3rd instar insect is added to each of 75 cups per dilution and incubated in a growth chamber under appropriate conditions such as at 22 C, 55% relative humidity with 16 h light/day. After 4 days, the insects are frozen, weighed and their head capsules measured. A reduction in head capsule size (eg. width) or weight compared to a control sample is indicative of the presence of a toxin. One skilled in the art would understand that this method can be modified to test different concentrations of toxin and that the conditions can be modified to test a variety of different pests.
Lambdina fiscellaria eggs (hemlock looper) were purchased from Forestry Canada in three lots. The eggs were incubated at room temperature for 10 d until larvae emerged. Larvae from each batch emerged within two days of each other and were immediately put on diet in cups as above. […] After 1 week on the test diets, the larvae were frozen, weighed and head capsule width determined.

The subject of data set [5] is C. fumiferana (spruce budworm) larvae. Kind of data set: Budworm growth on endophyte-infected nursery trees (mesh bags). The class given is in vivo, Choristoneura fumiferana. The following applies: four year old trees, branches above and below 0.5 μg g^−1. An excerpt: disease-free second instar spruce budworm larvae as follows: A set number of budworm were placed by hand on lateral branches with buds and then covered with a mesh screen on both endophyte-positive and negative trees. Temperature recorders were placed in the holding area and the progress monitored until the budworm was not greater than sixth instar. At termination, the insects were collected, frozen for subsequent determinations of head capsule width and frozen weight. Samples were collected for toxin analysis to ensure that there was no misclassification of the trees as to their endophyte status.
Nursery experiments: The tests were conducted at the J.D. Irving, Limited Sussex Tree Nursery in New Brunswick, Canada (45° 43′ N, 65° 31′ W; elevation 21.30 m). In two successive years, several hundred seedlings grown as container stock in mulitpot 67 seedling containers were inoculated with the rugulosin-producing endophyte 5WS22E1 (DAOM 229536; CBS 120377). […]
Temperature recorders (Hobo Dataloggers, Onset Computer Corporation, Pocasset, Mass.) were placed in the holding area and the progress monitored until the budworms were not older than sixth instars. […] Head capsule widths were determined using a stereo microscope at 40× with ocular and stage micrometers. […]

Data set [6] relates to rats. The conditions noted are these: in rats; Ueno et al. 1971; cited from earlier work.
The test system of data set [7] is HepG2 cells (human hepatoma cells). The conditions noted are these: Watts et al. 2003; cited from earlier work.
Data set [8] deals with ovarian cells of the fall armyworm, Spodoptera frugiperda. The conditions noted are these: Watts et al. 2003; cited from earlier work.

On to `Cc1cc(O)c2c(c1)C(=O)[C@]13C(=C2O)C(=O)[C@@H]2[C@H](O)[C@H]1[C@@H]1[C@@H](O)[C@H]3C(=O)C3=C(O)c4c(O)cc(C)cc4C(=O)[C@]312` [rugulosin], for which the antifungal activity entry in data set [1] is “moderately antifungal”. The “toxicity to C. fumiferana larvae in needles” value in data set [2] is recorded as “toxic”. Also, the “toxicity to cultured cells” value in data set [3] and in data set [8] was “toxic” in each case. In addition, in data set [4], the “dietary rugulosin concentration with significantly reduced head capsule” value turned out to be 150 µM. For the same compound, the “Pearson correlation between rugulosin concentration and budworm weight” value in data set [5] is listed as −0.288. The LD50 in data set [6] is on record as 44 mg kg^−1 BW. In addition, the cytotoxicity entry in data set [7] was “not cytotoxic”.
